Where two headings read alike, the source gives them in different places.
Experiments:
GFAT-beta = target: T1, GFAT-beta (Homo sapiens, UniProt O94808); assay: GFAT-beta inhibition, microtiter plate glucosamine 6-phosphate assay; assay type: biochemical
T1 construct: made in house; host or cells: SF9 insect cells (sonicated, centrifuged cell extract, not purified)
Experimental: Stimulation of GFAT activity. […] For most testing, a 60-minute incubation at 37° C. is carried out in 96 well microtiter plates. To give the best heat transfer the plates are sealed with a Costar plate sealer and floated on a 37° C. water bath. Air bubbles are removed from the bottom of the plate to ensure proper heat transfer to all wells. […] A mixture of the incubation reagents is kept on ice and the enzyme is added to the mixture just before addition to the plate. Additional incubation mixture is kept on ice to add to standard and control samples. […] If test agents are to be used, 10 μl is added to the appropriate wells and the vehicle is added to the control wells before addition of the incubation mixture. 15 wells are left blank for addition of control and standard glucosamine 6-phosphate samples. After the incubation, 10 μl of the standards made up in the appropriate vehicle (DMSO) are added to the appropriate wells.

GFAT-alpha = target: T2, GFAT-alpha (Homo sapiens, UniProt Q06210); assay: GFAT-alpha inhibition, microtiter plate glucosamine 6-phosphate assay; assay type: biochemical; details: enzyme expressed in SF9 insect cells; glutamine 10 mM, fructose 6-phosphate 10 mM; 60 minutes at 37° C.
T2 construct: made in house; host or cells: SF9 insect cells (sonicated, centrifuged cell extract, not purified)
T2 sequence (Q06210 1-681 isoform Q06210-2): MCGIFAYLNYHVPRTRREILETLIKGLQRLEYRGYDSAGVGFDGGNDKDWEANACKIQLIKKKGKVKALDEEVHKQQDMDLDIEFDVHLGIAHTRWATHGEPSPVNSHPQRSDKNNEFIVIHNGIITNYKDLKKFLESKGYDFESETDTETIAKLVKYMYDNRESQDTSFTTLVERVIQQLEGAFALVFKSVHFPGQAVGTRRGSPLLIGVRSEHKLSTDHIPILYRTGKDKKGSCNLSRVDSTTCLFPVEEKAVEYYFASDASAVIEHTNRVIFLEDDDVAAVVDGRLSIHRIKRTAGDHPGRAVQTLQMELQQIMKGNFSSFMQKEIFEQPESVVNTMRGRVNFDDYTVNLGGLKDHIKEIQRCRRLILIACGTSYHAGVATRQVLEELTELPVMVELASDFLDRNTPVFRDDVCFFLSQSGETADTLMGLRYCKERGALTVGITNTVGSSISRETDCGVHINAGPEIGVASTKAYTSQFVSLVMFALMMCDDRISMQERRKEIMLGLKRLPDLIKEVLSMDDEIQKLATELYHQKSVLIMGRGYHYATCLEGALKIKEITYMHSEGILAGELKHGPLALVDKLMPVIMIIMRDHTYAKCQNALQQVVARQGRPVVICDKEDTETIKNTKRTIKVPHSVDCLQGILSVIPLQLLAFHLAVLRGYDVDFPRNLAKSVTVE
Experimental: Enzyme preparation. GFAT-alpha (GenBank Accession No. M90516) and GFAT-beta (Accession No. AB016789) are cloned into pET12 and pEF-BOS C vectors (New England BioLabs) for transfection into SF9 and Hi5 insect cells, COS, type 293 cells, and E.coli. Endogenous activity for each cell line was also measured in non-transfected cells. The enzymes are expressed in each cell line by growing in large 24×24 cm plates and harvesting 20 hours after transfection. The media is removed and the plates are washed in 15 ml PBS. 1.5 ml of a lysis buffer (PBS 1×, KCl 50 mM, EDTA 10 mM, with protease inhibitors leupeptin 10 ug/ml, PMSF 20 ug/ml, A-protinin 30 ug/ml, and pepstatin 10 ug/ml) is added to each plate and the cells are removed using a large plastic cell scraper. […] The cell #/lysis volume is about 4×10^7cell/ml. The suspension is sonicated on ice (Branson sonicator setting 2.5 to 3) for 15 seconds using a microtip. The sonicated cell extracts are stored in microfuge tubes at −80° C. Before use, the extracts are centrifuged at 15000×g for 5 minutes at 4° C. Each enzyme preparation is titrated to determine the volume that gives between 20 to 30 umoles of glucosamine 6-phosphate in a reaction mixture in a 60-minute incubation at 37° C. (FIGS. 1A and 1B).
Stimulation of GFAT activity. […] For most testing, a 60-minute incubation at 37° C. is carried out in 96 well microtiter plates. To give the best heat transfer the plates are sealed with a Costar plate sealer and floated on a 37° C. water bath. Air bubbles are removed from the bottom of the plate to ensure proper heat transfer to all wells. The 100 μl reaction volume consists of glutamine 10 mM, fructose 6-phosphate 10 mM, PBS 1×, EDTA 5 mM, DTT 1 mM and the enzyme preparation. A mixture of the incubation reagents is kept on ice and the enzyme is added to the mixture just before addition to the plate. Additional incubation mixture is kept on ice to add to standard and control samples. […] If test agents are to be used, 10 μl is added to the appropriate wells and the vehicle is added to the control wells before addition of the incubation mixture. […] A concentration range of 2.5 to 30 umoles is in the linear portion of the curve and covers the quantity of glucosamine 6-phosphate produced under the incubation conditions (FIG. 4). The cold mixture is added to the standard sample wells and the glucosamine 6-phosphate is then measured.
Measurement of glucosamine 6-phosphate The reaction is started by adding the incubation mixture to the appropriate wells in a microtiter plate and placing the plate on a 37° C. water bath. […] The acetylated glucosamine is measured by the Morgan and Elson color reaction (Morgan. W. T. J. & Elson, L. A. (1934).Biochem. J. 28, 988). […]

[1] = enzyme expressed in SF9 insect cells, glutamine 10 mM, fructose 6-phosphate 10 mM, 60 minutes at 37° C., read-out: IC50 for inhibition of GFAT-beta

T1 sequence (O94808 whole entry): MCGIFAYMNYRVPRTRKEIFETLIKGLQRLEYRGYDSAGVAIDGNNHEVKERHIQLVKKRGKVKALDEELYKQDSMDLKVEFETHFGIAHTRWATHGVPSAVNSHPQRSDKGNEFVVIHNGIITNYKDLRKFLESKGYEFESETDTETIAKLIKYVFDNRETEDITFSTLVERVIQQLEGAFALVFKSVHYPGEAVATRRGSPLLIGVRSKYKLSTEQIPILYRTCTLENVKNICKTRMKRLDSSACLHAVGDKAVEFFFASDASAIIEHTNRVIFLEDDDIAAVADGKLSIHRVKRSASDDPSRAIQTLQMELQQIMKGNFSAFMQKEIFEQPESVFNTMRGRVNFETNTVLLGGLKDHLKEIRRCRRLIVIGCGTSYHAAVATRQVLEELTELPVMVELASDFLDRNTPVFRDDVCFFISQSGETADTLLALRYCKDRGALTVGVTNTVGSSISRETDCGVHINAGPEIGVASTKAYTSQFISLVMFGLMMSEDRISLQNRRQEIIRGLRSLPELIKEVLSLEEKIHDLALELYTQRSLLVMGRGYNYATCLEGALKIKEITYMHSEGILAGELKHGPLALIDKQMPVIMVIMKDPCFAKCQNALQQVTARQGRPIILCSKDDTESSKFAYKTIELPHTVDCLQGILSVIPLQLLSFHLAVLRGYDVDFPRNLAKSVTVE

Compound: [N-]=[N+]=CC(=O)CC[C@H](N)C(=O)O [DON, 6-diazo-5-oxo-L-norleucine]
- IC50 (GFAT-beta): 18 µM
- IC50 (GFAT-alpha): 18 µM

Compound: COC(=O)/C=C/C(=O)NC[C@H](N)C(=O)O [FMDP, N3-(-4-methoxyflumaroyl)-L-2,3-diaminopropanoic acid]
- IC50 (GFAT-beta; [1]): 2.3 µM
- IC50 (GFAT-alpha): 4 µM

Compound: N[C@@H](CNC(=O)CBr)C(=O)O [N3-(bromoacetyl)-L-2,3-diaminopropanoic acid]
- IC50 (GFAT-beta; [1]): 0.27 µM
- IC50 (GFAT-alpha): 0.38 µM

Compound: uridine-diphosphate-N-acetylglucosamine [UDP-N-acetylglucosamine]
- IC50 (GFAT-beta; [1]): 100 µM
- times as much required to inhibit GFAT-beta compared with GFAT-alpha (GFAT-beta; ratio of IC50 GFAT-beta to IC50 GFAT-alpha): more than 12 times
- IC50 (GFAT-alpha): 8 µM

— patent publication US20040191811A1, “Methods for measuring levels of uridine-diphosphate-N-acetylglucosamine and activity of inhibitors thereof” (priority 2002, published 2004)
